Structures are written as SMILES. ≈ marks a conversion by molar mass, not a printed value.

Some test systems named below: Escherichia coli K-12; Campylobacter jejuni; Escherichia coli; Staphylococcus aureus MR; Escherichia coli NDM; Enterococcus faecalis A4; Enterococcus faecium; Escherichia coli W3110; Staphylococcus aureus; Candida krusei ATCC 6258.
Assay in all cases: ≥ marks a high value that may be exact or a test limit, other limits are often not marked, values filed in µg/mL are converted to µM
For test [1], the system named is Acinetobacter baumannii KCTC 2508.
In test [2] the test system is Pseudomonas aeruginosa ATCC 27853.
The subject of test [3] is Klebsiella pneumoniae KCTC 2208.
The test system of test [4] is Staphylococcus aureus NCTC 12493.
The test system of test [5] is Staphylococcus aureus RN4220.
Test [6] deals with Acinetobacter baumannii Q12-0867.
In test [7] the test system is Acinetobacter baumannii Q13-0717.
The test system of test [8] is Klebsiella pneumoniae ATCC 700603.
Test [9] has as its system Pseudomonas aeruginosa PAO1.
In test [10] the test system is Pseudomonas aeruginosa Q14-0890.
Test [11] deals with Enterococcus faecalis JH-2-2.
Test [12] has as its system Pseudomonas aeruginosa Q14-0208.
In test [13] the test system is Klebsiella pneumoniae NCTC 13442.
The subject of test [14] is Salmonella typhimurium SL1344.
Test [15] deals with Pseudomonas aeruginosa Q12-0535.
Test [16] has as its system Staphylococcus aureus ATCC 29213.
Test [17] deals with Staphylococcus aureus Q14-0320.
Test [18] deals with Acinetobacter baumannii Q12-0809.
Test [19] relates to Listeria monocytogenes NCTC 11994.
Test [20] concerns Campylobacter jejuni NCTC 11351.
The subject of test [21] is Klebsiella pneumoniae Q14-0095.
Test [22] has as its system Staphylococcus aureus MRSA-15.
The subject of test [23] is Enterococcus faecalis 1F-1.
The subject of test [24] is Bacillus cereus ATCC 14579.
The subject of test [25] is Staphylococcus aureus 215.
Test [26] relates to Pseudomonas aeruginosa PA14.
The test system of test [27] is Bacillus amyloliquefaciens ATCC 23842.
In test [28] the test system is Enterococcus faecium 5F-10.
In test [29] the test system is Acinetobacter baumannii AB5075.
Test [30] concerns Bacillus licheniformis ATCC 14580.
Test [31] has as its system Bacillus subtilis ATCC 6051.
Test [32] concerns Enterococcus faecalis ATCC 4028.
Test [33] has as its system Staphylococcus epidermidis ATCC 12228.
The test system of test [34] is Candida albicans ATCC 90028.
In test [35] the test system is Enterobacter cloacae ATCC 13047.
Test [36] deals with Escherichia coli ATCC 25922.
For test [37], the system named is Candida glabrata ATCC 90030.

On to `CC[C@H](C)[C@H](N)C(=O)N[C@@H](C)C(=O)N[C@@H](CCCN=C(N)N)C(=O)N[C@@H](CCCN=C(N)N)C(=O)N[C@@H](C)C(=O)N[C@@H](CC(C)C)C(=O)N[C@@H](CCCCN)C(=O)N[C@@H](C)C(=O)N[C@@H](CO)C(=O)N[C@@H](CC(C)C)C(=O)N[C@@H](CCCN=C(N)N)C(=O)N[C@@H](C)C(=O)N[C@@H](CCCN=C(N)N)C(=O)N[C@@H](Cc1cnc[nH]1)C(=O)N[C@H](C(=O)N[C@H](C(=O)N1CCC[C@H]1C(=O)N[C@@H](CCC(N)=O)C(=O)N[C@@H](CS)C(=O)N[C@@H](CCCCN)C(=O)N[C@@H](CCCCN)C(=O)N[C@@H](Cc1ccccc1)C(=O)NCC(=O)N[C@@H](CCCN=C(N)N)C(=O)N[C@@H](CCCN=C(N)N)C(N)=O)[C@@H](C)CC)[C@@H](C)O` [IARRALKASLRARHTIPQCKKFGRR], for which the MIC worked out at 4 µM (≈ 11.7 µg/mL) in test [1], 4 µM (≈ 11.7 µg/mL) in test [2] and 8 µM (≈ 23.5 µg/mL) in [3].

For `CC[C@H](C)[C@H](NC(=O)[C@H](CO)NC(=O)[C@@H](N)CCCN=C(N)N)C(=O)N[C@H](C(=O)N[C@@H](CCCN=C(N)N)C(=O)N1CCC[C@H]1C(=O)N[C@H](C(=O)N[C@@H](CC(C)C)C(=O)N[C@H](C(=O)N[C@@H](CCCN=C(N)N)C(=O)N[C@@H](CCCN=C(N)N)C(=O)N[C@@H](CCCN=C(N)N)C(=O)N[C@@H](Cc1c[nH]c2ccccc12)C(=O)N[C@@H](CCCN=C(N)N)C(=O)N[C@H](C(=O)N[C@@H](CCCN=C(N)N)C(=O)N1CCC[C@H]1C(=O)N[C@H](C(=O)N[C@@H](Cc1ccccc1)C(=O)O)C(C)C)C(C)C)C(C)C)C(C)C)[C@@H](C)O` [RSITRPVLVRRRWRVRPVF], the MIC in test [4] was not below 52.2 µM; in [5], not below 104 µM; in test [6], not below 52.2 µM; in test [7] it was not below 52.2 µM; in test [8], more than 52.2 µM; against Escherichia coli K-12, not below 104 µM. Besides, the minimal inhibitory concentration (MIC) in test [9] is 209 µM (≈ 512 µg/mL); in test [10] it was not below 52.2 µM; in test [11], not below 209 µM; in [12], not below 52.2 µM; in [13], not below 52.2 µM; in test [14] it was 26.1 µM (≈ 64 µg/mL). In addition, the minimal inhibitory concentration (MIC) was not below 51 µM in test [15]; more than 52.2 µM in [16]; not below 52.2 µM in test [17]; 26.1 µM (≈ 64 µg/mL) in test [18]; not below 209 µM in test [19]; not below 52.2 µM in [20]. Also, the MIC in [2] was more than 52.2 µM; against Campylobacter jejuni, not below 52.2 µM; in test [21], not below 52.2 µM; in the test on Escherichia coli it was more than 52.2 µM; in test [22], not below 102 µM.

Regarding `CC[C@H](C)[C@H](NC(=O)[C@H](CC(C)C)NC(=O)[C@H](CO)NC(=O)[C@@H](NC(=O)[C@H](CCC(N)=O)NC(=O)[C@H](Cc1ccc(O)cc1)NC(=O)[C@H](CCCN=C(N)N)NC(=O)[C@H](CCCN=C(N)N)NC(=O)[C@H](CCCN=C(N)N)NC(=O)[C@@H](NC(=O)[C@H](CO)NC(=O)[C@@H](NC(=O)[C@@H](N)[C@@H](C)O)[C@@H](C)O)[C@@H](C)CC)C(C)C)C(=O)N[C@@H](CCCN=C(N)N)C(=O)N[C@@H](CCCN=C(N)N)C(=O)N[C@@H](Cc1cnc[nH]1)C(=O)N[C@@H](CCCN=C(N)N)C(=O)NCC(=O)N[C@@H](CCCCN)C(=O)N[C@@H](CCCN=C(N)N)C(=O)O` [TTSIRRRYQVSLIRRHRGKR], the MIC in [23] is 3.15 µM (≈ 8 µg/mL); with Staphylococcus aureus MR, 25.2 µM (≈ 64 µg/mL); against Escherichia coli NDM, not below 32 µM; in test [24], 25.2 µM (≈ 64 µg/mL); in [25], 12.6 µM (≈ 32 µg/mL); against Enterococcus faecalis A4, 3.15 µM (≈ 8 µg/mL). For the same compound, the MIC is 3.15 µM (≈ 8 µg/mL) against Enterococcus faecium; 16 µM (≈ 40.6 µg/mL) in test [26]; 25.2 µM (≈ 64 µg/mL) in [27]; 1.57 µM (≈ 4 µg/mL) in test [28]; 1 µM (≈ 2.54 µg/mL) in test [29]; 25.2 µM (≈ 64 µg/mL) in test [30]. The MIC was 25.2 µM (≈ 64 µg/mL) in test [16], 16 µM (≈ 40.6 µg/mL) against Escherichia coli W3110, 25.2 µM (≈ 64 µg/mL) in [31] and 6.3 µM (≈ 16 µg/mL) in the test with Staphylococcus aureus.

`CC[C@H](C)[C@H](NC(=O)[C@H](CC(C)C)NC(=O)CNC(=O)[C@H](CCCCN)NC(=O)[C@@H](NC(=O)[C@H](CC(C)C)NC(=O)[C@H](CCCCN)NC(=O)[C@@H]1CCCN1C(=O)[C@@H](NC(=O)[C@H](CC(C)C)NC(=O)[C@H](CCCCN)NC(=O)[C@H](Cc1ccccc1)NC(=O)[C@@H](N)Cc1ccccc1)[C@@H](C)CC)C(C)C)C(=O)N[C@@H](CO)C(=O)N[C@@H](C)C(=O)N[C@@H](Cc1ccccc1)C(=O)N[C@@H](CCCCN)C(N)=O` [FFKLIPKLVKGLISAFK]: the MIC in test [32] was 1.17 µM (≈ 2.28 µg/mL); against Candida krusei ATCC 6258, 9.38 µM (≈ 18.3 µg/mL); in test [33] it was 9.38 µM (≈ 18.3 µg/mL); in [16] it was 2.34 µM (≈ 4.56 µg/mL); in test [2] it was 1.17 µM (≈ 2.28 µg/mL); in [34], 4.69 µM (≈ 9.14 µg/mL). Moreover, the MIC in test [35] was found to be 9.38 µM (≈ 18.3 µg/mL); in test [36], 2.34 µM (≈ 4.56 µg/mL); in [37] it was 9.38 µM (≈ 18.3 µg/mL).
